According to patent US20220175955A1, “PEPTIDE DISPLAY TO ANTIGEN PRESENTING CELLS USING LIPID VEHICLE” (Torque Therapeutics Inc., priority 2018, published 2022):

System: CD11c+ BMDCs
Assay: Antigen presentation (MHC I:SIINFEKL) on antigen-pulsed BMDCs in vitro, flow cytometry
Format: cell-based, mouse
Settings: 1 μM epitope; later time points (48 h to 96 h); FIG. 1
Experimental: Bone marrow derived dendritic cells (BMDCs) were differentiated in vitro before antigen pulsing. Bone marrow cells were isolated from tibia and femur from C57bl/6 JrJ mice obtained from Janvier SAS. After sacrificing the mice by cervical dislocation, bones were isolated and kept in tissue storage solution (MACS Miltenyi). After a 2 min sterilization in 70% ethanol, bones were cut at each end with a scalpel end flushed with medium by using a 29 g insulin syringe. Following isolation, bone marrow cells were cultured in complete RPMI 1640 medium supplemented with 20 ng/ml mouse recombinant GM-CSF. On day 3, cells were supplemented with fresh medium containing GM-CSF. On day 6, immature BMDCs were harvested, re-plated and incubated with 1 μM liposomal (MK062 or MK062 TMX) or soluble SIINFEKL epitope. BMDCs were harvested after 24 or 48 hours for flow cytometry analysis. […] After blocking for 5 min on ice, cells were stained with antibodies against the dendritic cell marker CD11c and assessed for antigen presentation by an antibody recognizing SIINFEKL presented on MHC I molecules (H-2kb). […]
[…] After blocking for 5 min on ice, cells were stained with antibodies against the dendritic cell marker CD11c and assessed for antigen presentation by an antibody recognizing SIINFEKL presented on MHC I molecules (H-2kb). […]

SIINFEKL (Synthetic antigen)
Antigen presentation (MFI of MHC:SIINFEKL in CD11c+ BMDCs): decreased markedly
